How the values were obtained:
Gbe^ys/ys mice = test: Histological PG (PAS after diastase) and biochemical glycogen determination in tissues; format: in vivo
Text: FIGS. 2A-2C include images and graphs of histopathological effects of Compound 1 and its pharmacokinetics: right panel present images of indicated tissues of sacrificed mice and stained for PG (arrows) with PAS following treatment with diastase; left panel, presents bar graphs quantifying PAS staining, based on analysis of 4 sections from each tissue in n=2 wild type, n=7 Gbe^ys/ys vehicle-treated, and n=9 Compound 1-treated mice (2A); bar graph quantifying total glycogen in the respective tissues (2B); graph of Compound 1pharmacokinetics (2C); 9 months old Gbe^ys/ys mice were SC-injected with 150 μL of Compound 1 at 250 mg/kg. Mice were sacrificed 30-, 60-, 90-, and 210-min post injection and the indicated tissues were removed, as well as 200 μL of serum drawn. […] Shown are means and SEM of results obtained from n=3 mice at each time point.
Brain, heart, muscle, nerve fascicles (peripheral nerves), and liver tissues from wt and Compound 1 and vehicle treated Gbe^ys/ys animals were separated to characterize the histopathological effects of Compound 1. Tissues were extracted, fixed, embedded in paraffin, and sectioned. After deparaffinization, sections were treated for 5 min with 0.5% diastase to digest non-polyglucosan glycogen, leaving behind polyglucosan. Sections were then washed, stained for polyglucosan with PAS and counterstained with hematoxylin, and analyzed by light microscopy, all as previously described. […] Following digestion, total glycogen was determined based on the glucose content using the Sigma GAGO20 kit.
This information is important for determining whether the expected mode of action of Compound 1 discovered ex vivo -reduction of polyglucosan levels in fibroblasts — also takes place in vivo and if so in which tissues. […] Following diastase treatment to digest non-polyglucosan glycogen, leaving behind polyglucosan, sections were stained for polyglucosan with periodic acid-Schiff s (PAS) reagent, counterstained with hematoxylin and analyzed by light microscopy.

[1] = system: LAMP1-KD and GFP control APBD primary fibroblasts; test: LAMP1 knockdown: autophagic flux, lysosomal pH (Lysosensor), PAS glycogen; format: cell-based, human
Text: FIGS. 6A-6E include bar graphs of autophagic flux, determined by the extent of lysosomal inhibitors-dependent increase in the ratio of lipidated to non-lipidated LC3 (LC3II/LC3I) (6A); representative TEM images of liver tissue from 9.5 month old Gbe^ys/ys mice treated with Compound 11, or 5% DMSO vehicle (6B), G: Glycogen (alpha particles) and polyglucosan (structures with variable electron densities), L: Lysosomes, M: Mitochondria; right panel: lysosomal glycogen stain was quantified by ImageJ “count particle” tool; micrograph of LAMP1 knocked down and control APBD primary skin fibroblasts treated or not with Compound 1 and lysosomal inhibitors (LI) and quantification of 3 experiments and results of Student's t-tests. *, p<0.1; **, p<0.05; ***, p<0.01 (6C); graphs of lysosomal pH changes determined in APBD primary fibroblasts transduced with lentiviruses encoding for GFP or GFP-shLAMP1 and treated or not with Compound 1 for 24 h and confocal microscope images of cells treated with Lysosensor and stained for PAS (6D); and bar graph of ATP production rate assay in LAMP1-KD and GFP (Control) cells treated for 24 h (chronic) or on assay (acute) with Compound 1 (6E).
To determine the functional importance of the interaction between Compound 1 and LAMP1, the inventors knocked down the latter using a lentiviral vector carrying GFP tagged shRNA against LAMP1. […] Furthermore, to test whether LAMP1-KD and Compound 1 enhanced autophagic flux by improving lysosomal function, the inventors quantified lysosomal acidification using the pH ratiometric dye Lysosensor™, which quantifies pH based on the yellow/blue emission ratio. […] The inventors show by flow cytometry (FIG. 6D, upper panel) the overall cellular acidification as an increase in 375 nm-excited yellow/blue emission, and by confocal microscopy that this acidification is associated with brighter yellow fluorescence in lysosomes (FIG. 6D, middle panel).

[2] = system: skin fibroblasts derived from Gsd1a patients; test: NAD+/NADH ratio, Sirt1 and p62 expression; format: cell-based, human; details: 50 μM, 24 h
Experimental: FIG. 21 includes vertical bar graphs showing skin fibroblasts derived from Gsd1a patients were treated with solvent or 50 μM Compound A for 24 h and analyzed for NAD+/NADH ratio by the Promega kit (left panel) and for Sirt1 (middle panel) and p62 (right panel) expression by western immunoblotting.
NAD+ and NADH are key precursors for the electron transfer chain, TCA cycle, glycolysis, amino acid synthesis, fatty acid synthesis, and nucleotide synthesis. The NAD+/NADH ratio reports the extent of overall catabolism and the balance between glycolysis and OxPhos. The increase in the NAD+/NADH ratio means acceleration of electron flow in the mitochondrial electron transport chain (note, not mitochondrial ATP production) and of glycolysis to better manage metabolic demands. Furthermore, Sirt1 induction, often associated with increased NAD+/NADH ratio, is a well-documented and innovative anti-aging, calorie restriction-mimic and anti-cancer therapeutic strategy (see for example Hyun et al., (2020)). Thus, the results in Gsd1a cells (FIG. 21), showing induction of the NAD+/NADH ratio, as well as Sirt1, indicate that 144DG11 is a promising therapy for a plethora of different metabolic disorders, aging-related complications, and cancer.

[3] = PAS after diastase, sacrifice at 9.5 months

COCCN(Cc1sccc1C)C(=O)c1cc(C)nc(O)c1 [Compound 1]
muscle polyglucosans (Gbe^ys/ys mice; [3]): no apparent effect | polyglucosan levels in brain, liver, heart, and peripheral nerve (Gbe^ys/ys mice; [3]): significant reduction in polyglucosan levels | total glycogen levels, determined biochemically (Gbe^ys/ys mice; same tissues): correspondingly affected | autophagic flux in LAMP1 knocked down cells ([1]; 24 h serum starvation): further enhanced | lysosomal pH (Lysosensor) ([1]; GFP and LAMP1-KD APBD cells, 24 h): led to lysosomal acidification | reduction of cellular glycogen levels by LAMP knockdown (PAS) ([1]; GFP control and shLAMP1-GFP transduced): slightly enhanced | NAD+/NADH ratio [2]: induction | Sirt1 expression [2]: induction | p62 expression [2]: downmodulated

Reference: US20240139167A1, “LYSOSOME-ASSOCIATED MEMBRANE PROTEIN TARGETING COMPOUNDS AND USES THEREOF” (HADASIT MEDICAL RESEARCH SERVICES AND DEVELOPMENT LTD., priority 2021, published 2024)
